Test results: PubChem BioAssay (NCI)
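Five concentrations, 48 hours, 96-well plates. At the TGI there is no net growth.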

Key:
Test in all cases: inhibition of tumour cell growth, NCI panel, 48 h
[1] = system: TK-10 renal
[2] = system: IGROV1 ovarian
[3] = system: MOLT-4 leukemia
[4] = system: EKVX NSCLC
[5] = system: OVCAR-8 ovarian
[6] = system: CCRF-CEM leukemia
[7] = system: A549 NSCLC
[8] = system: HCT-15 colon
[9] = system: MDA-MB-435
[10] = system: SW-620 colon
[11] = system: HOP-62 NSCLC
[12] = system: COLO 205 colon
[13] = system: HCT-116 colon
[14] = system: PC-3 prostate
[15] = system: SK-MEL-28 melanoma
[16] = system: UO-31 renal
[17] = system: KM12 colon
[18] = system: HT29 colon
[19] = system: NCI/ADR-RES ovarian
[20] = system: NCI-H23 lung
[21] = system: SK-MEL-2 melanoma
[22] = system: U251 CNS
[23] = system: RXF 393 renal
[24] = system: A498 renal
[25] = system: T-47D breast
[26] = system: M14 melanoma
[27] = system: RPMI-8226 leukemia
[28] = system: SK-OV-3 ovarian
[29] = system: NCI-H460 lung
[30] = system: SF-295 CNS
[31] = system: SR leukemia
[32] = system: MCF7 breast
[33] = system: NCI-H226 lung
[34] = system: OVCAR-5 ovarian
[35] = system: HCC-2998 colon
[36] = system: SF-539 CNS
[37] = system: MDA-MB-231 breast
[38] = system: UACC-62 melanoma
[39] = system: HL-60(TB) leukemia
[40] = system: SNB-75 CNS
[41] = system: HS 578T breast
[42] = system: NCI-H522 lung
[43] = system: ACHN renal
[44] = system: DU-145 prostate
[45] = system: BT-549 breast
[46] = system: OVCAR-4 ovarian
[47] = system: MALME-3M melanoma
[48] = system: CAKI-1 renal
[49] = system: SK-MEL-5 melanoma
[50] = system: SN12C renal
[51] = system: MDA-N
[52] = system: LOX IMVI melanoma
[53] = system: HOP-92 NSCLC
[54] = system: 786-0 renal
[55] = system: SF-268 CNS
[56] = system: OVCAR-3 ovarian
[57] = system: SNB-19 CNS
[58] = system: K-562 leukemia
[59] = system: UACC-257 melanoma

Structure (SMILES): Cc1ccc(N=Nc2c(C)nn(C(=O)CC(=O)Nc3ccccc3)c2C)cc1C
- TGI [1]: > 100 µM
- TGI [2]: > 100 µM
- TGI [3]: > 100 µM
- TGI [4]: > 100 µM
- TGI [5]: > 100 µM
- TGI [6]: > 100 µM
- TGI [7]: > 100 µM
- TGI [8]: > 100 µM
- TGI [9]: > 100 µM
- TGI [10]: > 100 µM
- TGI [11]: > 100 µM
- TGI [12]: > 100 µM
- TGI [13]: > 100 µM
- TGI [14]: > 100 µM
- TGI [15]: > 100 µM
- TGI [16]: > 100 µM
- TGI [17]: > 100 µM
- TGI [18]: > 100 µM
- TGI [19]: > 100 µM
- TGI [20]: > 100 µM
- TGI [21]: > 100 µM
- TGI [22]: > 100 µM
- TGI [23]: > 100 µM
- TGI [24]: > 100 µM
- TGI [25]: > 100 µM
- TGI [26]: > 100 µM
- TGI [27]: > 100 µM
- TGI [28]: > 100 µM
- TGI [29]: > 100 µM
- TGI [30]: > 100 µM
- TGI [31]: > 100 µM
- TGI [32]: > 100 µM
- TGI [33]: > 100 µM
- TGI [34]: > 100 µM
- TGI [35]: > 100 µM
- TGI [36]: > 100 µM
- TGI [37]: > 100 µM
- TGI [38]: > 100 µM
- TGI [39]: > 100 µM
- TGI [40]: > 100 µM
- TGI [41]: > 100 µM
- TGI [42]: > 100 µM
- TGI [43]: > 100 µM
- TGI [44]: > 100 µM
- TGI [45]: > 100 µM
- TGI [46]: > 100 µM
- TGI [47]: > 100 µM
- TGI [48]: > 100 µM
- TGI [49]: > 100 µM
- TGI [50]: > 100 µM
- TGI [51]: > 100 µM
- TGI [52]: > 100 µM
- TGI [53]: > 100 µM
- TGI [54]: > 100 µM
- TGI [55]: > 100 µM
- TGI [56]: > 100 µM

Structure (SMILES): COc1cc2c3cc1Oc1c(O)c(OC)cc4c1[C@H](Cc1ccc(cc1)Oc1cc(ccc1O)C[C@H]3N(C)CC2)N(C)CC4
- TGI [1]: 48.6 µM
- TGI [2]: 36.1 µM
- TGI [3]: > 43.8 µM
- TGI [4]: 48.1 µM
- TGI [5]: 37.3 µM
- TGI [6]: 42.7 µM
- TGI [7]: 39.6 µM
- TGI [8]: 59.5 µM
- TGI [9]: 27.1 µM
- TGI [10]: 57.3 µM
- TGI [11]: 43.8 µM
- TGI [12]: 28.5 µM
- TGI [13]: 22.4 µM
- TGI [14]: 27.1 µM
- TGI [15]: 39.2 µM
- TGI [16]: 44.8 µM
- TGI [17]: 23.7 µM
- TGI [18]: 18.5 µM
- TGI [19]: 78.4 µM
- TGI [20]: 51.8 µM
- TGI [21]: 25.6 µM
- TGI [22]: 28 µM
- TGI [23]: 13.9 µM
- TGI [24]: 31.5 µM
- TGI [25]: 46.1 µM
- TGI [26]: 5.62 µM
- TGI [27]: 20 µM
- TGI [57]: 55.1 µM
- TGI [28]: 79.3 µM
- TGI [58]: 17.6 µM
- TGI [29]: 26.8 µM
- TGI [30]: 31.3 µM
- TGI [31]: 9.15 µM
- TGI [32]: 44.4 µM
- TGI [33]: 58.8 µM
- TGI [34]: 58.6 µM
- TGI [35]: 22.8 µM
- TGI [36]: 10.9 µM
- TGI [37]: 22.8 µM
- TGI [38]: 33.4 µM
- TGI [39]: 33.9 µM
- TGI [40]: 43 µM
- TGI [41]: 64.9 µM
- TGI [42]: 27 µM
- TGI [59]: 33.9 µM
- TGI [43]: 61 µM
- TGI [44]: 37.5 µM
- TGI [45]: 28.4 µM
- TGI [46]: 48 µM
- TGI [47]: 36.8 µM
- TGI [48]: 86.3 µM
- TGI [49]: 16.6 µM
- TGI [50]: 34.6 µM
- TGI [51]: 24.7 µM
- TGI [52]: 17.8 µM
- TGI [53]: 39.4 µM
- TGI [54]: 21.7 µM
- TGI [55]: 47.3 µM
- TGI [56]: 28.5 µM

Structure (SMILES): COc1ccc(N2C=Nn3c(nc4sc(C)c(C)c4c3=O)C2)cc1
- TGI [1]: > 100 µM
- TGI [2]: > 100 µM
- TGI [3]: > 100 µM
- TGI [4]: > 100 µM
- TGI [5]: > 100 µM
- TGI [6]: > 100 µM
- TGI [7]: > 100 µM
- TGI [8]: > 100 µM
- TGI [9]: > 100 µM
- TGI [10]: > 100 µM
- TGI [11]: > 100 µM
- TGI [12]: > 100 µM
- TGI [13]: > 100 µM
- TGI [14]: > 100 µM
- TGI [15]: > 100 µM
- TGI [16]: > 100 µM
- TGI [17]: > 100 µM
- TGI [18]: > 100 µM
- TGI [19]: > 100 µM
- TGI [20]: > 100 µM
- TGI [21]: > 100 µM
- TGI [22]: > 100 µM
- TGI [23]: > 100 µM
- TGI [24]: > 100 µM
- TGI [25]: > 100 µM
- TGI [26]: > 100 µM
- TGI [27]: > 100 µM
- TGI [57]: > 100 µM
- TGI [28]: > 100 µM
- TGI [58]: > 100 µM
- TGI [29]: > 100 µM
- TGI [30]: > 100 µM
- TGI [31]: > 100 µM
- TGI [32]: > 100 µM
- TGI [33]: > 100 µM
- TGI [34]: > 100 µM
- TGI [35]: > 100 µM
- TGI [37]: > 100 µM
- TGI [38]: > 100 µM
- TGI [40]: > 100 µM
- TGI [41]: > 100 µM
- TGI [42]: > 100 µM
- TGI [59]: > 100 µM
- TGI [43]: > 100 µM
- TGI [44]: > 100 µM
- TGI [45]: > 100 µM
- TGI [46]: > 100 µM
- TGI [47]: > 100 µM
- TGI [48]: > 100 µM
- TGI [49]: > 100 µM
- TGI [50]: > 100 µM
- TGI [51]: > 100 µM
- TGI [52]: > 100 µM
- TGI [53]: > 100 µM
- TGI [54]: > 100 µM
- TGI [55]: > 100 µM
